Entries after “also recorded” stand apart in the source; their conditions may differ. Read-outs that look alike come from different tables or passages of the source.
Columns and labels:
HOP-62 = experiment: cells; format: cell-based; conditions: Homo sapiens
60 cell line panel = experiment: NCI 60 cell line screen, whole panel; format: cell-based
PC-3 = experiment: cells; format: cell-based; conditions: Homo sapiens, PC-3
RXF 393 = experiment: cells; conditions: Homo sapiens
UO-31 = experiment: NCI 60 cell line screen (SRB), renal cancer; format: cell-based; conditions: Homo sapiens, read-out: Log10 TGI (converted)
ACHN = experiment: cells; conditions: Homo sapiens
M14 = experiment: NCI 60 cell line screen (SRB), melanoma; conditions: Homo sapiens
NCI-H460 = experiment: cells; format: cell-based; conditions: Homo sapiens
A498 = experiment: cells; format: cell-based; conditions: Homo sapiens
T-47D = experiment: cells; format: cell-based; conditions: Homo sapiens, T47D; T-47D; read-out: Log10 TGI (converted)
U251 = experiment: cells; format: cell-based; conditions: Homo sapiens
SNB-19 = experiment: cells; format: cell-based; conditions: Homo sapiens
HCT-15 = experiment: cells; format: cell-based; conditions: Homo sapiens, HCT-15; read-out: Log10 TGI (converted)
SR = experiment: cells; format: cell-based; conditions: Homo sapiens, read-out: Log10 TGI (converted)
KM12 = experiment: cells; format: cell-based; conditions: Homo sapiens, read-out: Log10 TGI (converted)
MCF7 = experiment: cells; format: cell-based; conditions: Homo sapiens, MCF7
HCT-116 = experiment: cells; format: cell-based; conditions: Homo sapiens
MOLT-4 = experiment: cells; conditions: Homo sapiens
Description: The screening assay is performed on a 96-well microtitre plates.
Dose response curves, shown in the above mentioned Figures, are obtained by exposing various cancer cell lines to compounds having a known concentration ([log10 M]), as discussed in detail above, and then plotting the percentage growth of each cell line for each concentration. […] As discussed previously, the five drug dilutions routinely tested range from 10^-4 to 10^-9 molar.

HOP-92 = experiment: NCI 60 cell line screen (SRB), non-small cell lung cancer; format: cell-based; conditions: Homo sapiens
SK-MEL-2 = experiment: cells; format: cell-based; conditions: Homo sapiens
IGROVI = experiment: cells; conditions: 60 cell, read-out: Log10 TGI
SNB-75 = experiment: cells; format: cell-based; conditions: Homo sapiens, read-out: Log10 TGI (converted)
A549/ATCC = experiment: NCI 60 cell line screen (SRB), non-small cell lung cancer; format: cell-based; conditions: Homo sapiens
MDA-N = experiment: cells; format: cell-based; conditions: Homo sapiens
NCI-H226 = experiment: NCI 60 cell line screen (SRB), non-small cell lung cancer; format: cell-based; conditions: Homo sapiens
SW-620 = experiment: NCI 60 cell line screen (SRB), colon cancer; format: cell-based; conditions: Homo sapiens, read-out: Log10 TGI (converted)
NCI-H23 = experiment: NCI 60 cell line screen (SRB), non-small cell lung cancer; format: cell-based; conditions: Homo sapiens
OVCAR-8 = experiment: NCI 60 cell line screen (SRB), ovarian cancer; format: cell-based; conditions: Homo sapiens
SN12C = experiment: cells; format: cell-based; conditions: Homo sapiens
TK-10 = experiment: cells; format: cell-based; conditions: Homo sapiens, read-out: Log10 GI50 (converted)
BT-549 = experiment: cells; format: cell-based; conditions: Homo sapiens
EKVX = experiment: NCI 60 cell line screen (SRB), non-small cell lung cancer; format: cell-based; conditions: Homo sapiens
HT29 = experiment: cells; format: cell-based; conditions: Homo sapiens, HT-29, read-out: Log10 TGI (converted)
MDA-MB231/ATCC = experiment: cells; format: cell-based; conditions: Homo sapiens
[1] = read-out: Log10 GI50 (converted)
[2] = read-out: Log10 LC50 (converted)
[3] = read-out: Log10 TGI (converted)

C[C@H]1[C@@H](CC(=O)c2ccc(C(=O)C[C@H]3O[C@@H]4O[C@@]5(C)CC[C@H]6[C@H](C)CC[C@@H]([C@H]3C)[C@@]46OO5)cc2)O[C@@H]2O[C@@]3(C)CC[C@H]4[C@H](C)CC[C@@H]1[C@@]24OO3 [Dimer 21]
GI50 (HOP-62; [1]): 417 nM | CC50 (HOP-62; [2]): 52.5 µM | IC (TGI) (HOP-62; [3]): 17.4 µM | GI50 (60 cell line panel; 60 cell, mean over panel, read-out: Log10 GI50 MG MID (converted)): 58.9 nM | IC (TGI) (60 cell line panel; 60 cell, mean over panel, read-out: Log10 TGI MG MID (converted)): 93.3 mM | CC50 (60 cell line panel; Homo sapiens, 60 cell, mean over panel, read-out: Log10 LC50 MG MID (converted)): 64.6 µM | potency compared with artemisinin (60 cell line panel; Tables III, IV and V): more potent than artemisinin | potency compared with paclitaxel (60 cell line panel; Tables III, IV and V): in most instances are as potent and in some instances more potent than paclitaxel; also recorded: equivalent to and in many instances higher in potency than paclitaxel | Log10 TGI Range (60 cell line panel; panel): 4.00 | CC50 (PC-3; [2]): 47.9 µM | IC (TGI) (PC-3; [3]): 11.5 µM | GI50 (RXF 393; RXF 393, read-out: Log10 GI50 (converted)): 2570 nM | CC50 (RXF 393; RXF 393, read-out: Log10 LC50 (converted)): 49 µM | IC (TGI) (RXF 393; RXF 393, read-out: Log10 TGI): 19.5 µM | IC (TGI) (UO-31): 57.5 µM | GI50 (ACHN; [1]): 19.5 nM | CC50 (ACHN; [2]): > 100 µM | IC (TGI) (ACHN; read-out: Log10 TGI): 69.2 µM | GI50 (M14; M14, read-out: Log10 GI50 (converted)): 1260 nM | CC50 (M14; M14, read-out: Log10 LC50 (converted)): 45.7 µM | IC (TGI) (M14; M14, read-out: Log10 TGI): 17.8 µM | IC (TGI) (NCI-H460; NCI-H460, read-out: Log10 TGI): > 100 µM | GI50 (NCI-H460; NCI-H460, read-out: Log10 GI50 (converted)): 525 nM | CC50 (NCI-H460; NCI-H460, read-out: Log10 LC50 (converted)): > 100 µM | GI50 (A498; [1]): 1820 nM | CC50 (A498; [2]): 64.6 µM | IC (TGI) (A498; [3]): 19.1 µM | IC (TGI) (T-47D): 2.57 µM | CC50 (U251; U-251, read-out: Log10 LC50 (converted)): 41.7 µM | IC (TGI) (U251; U-251, read-out: Log10 TGI (converted)): 17 µM | GI50 (SNB-19; [1]): 537 nM | IC (TGI) (SNB-19; [3]): 41.7 µM | IC (TGI) (HCT-15): 24.5 µM | IC (TGI) (SR): > 100 µM | IC (TGI) (KM12): 14.5 µM | CC50 (MCF7; [2]): 53.7 µM | IC (TGI) (MCF7; [3]): 13.2 µM | CC50 (HCT-116; [2]): 51.3 µM | IC (TGI) (HCT-116; [3]): 12.6 µM | IC (TGI) (MOLT-4; MOLT-4, read-out: Log10 TGI): 12.9 µM | IC (TGI) (MOLT-4; MOLT-4, read-out: concentration for cytostasis): ~100 µM | GI50 (MOLT-4; MOLT-4, read-out: concentration for primary growth inhibition): < 100 nM | GI50 (HOP-92; [1]): 70.8 nM | CC50 (HOP-92; [2]): 83.2 µM | IC (TGI) (HOP-92; [3]): 17.4 µM | GI50 (SK-MEL-2; [1]): 38.9 nM | CC50 (SK-MEL-2; [2]): 25.1 µM | IC (TGI) (SK-MEL-2; [3]): 0.55 µM | IC (TGI) (IGROVI): 12 µM | IC (TGI) (SNB-75): 34.7 µM | CC50 (A549/ATCC; [2]): 37.2 µM | IC (TGI) (A549/ATCC; [3]): 13.5 µM | CC50 (MDA-N; [2]): 39.8 µM | IC (TGI) (MDA-N; [3]): 5.75 µM | GI50 (NCI-H226; [1]): 83.2 nM | CC50 (NCI-H226; [2]): > 100 µM | IC (TGI) (NCI-H226; [3]): 28.2 µM | IC (TGI) (SW-620): 87.1 µM | GI50 (NCI-H23; [1]): 12 nM | IC (TGI) (NCI-H23; [3]): > 100 µM | CC50 (OVCAR-8; [2]): 41.7 µM | IC (TGI) (OVCAR-8; [3]): 12.3 µM | GI50 (SN12C; [1]): 10.5 nM | CC50 (SN12C; [2]): 85.1 µM | IC (TGI) (SN12C; [3]): 12.3 µM | GI50 (TK-10): 2.88 nM | GI50 (BT-549; [1]): 263 nM | IC (TGI) (BT-549; [3]): 49 µM | GI50 (EKVX; [1]): 1150 nM | CC50 (EKVX; [2]): > 100 µM | IC (TGI) (EKVX; [3]): 26.3 µM | IC (TGI) (HT29): 15.1 µM | GI50 (MDA-MB231/ATCC; MDA-MB-231, read-out: Log10 GI50 (converted)): 178 nM | CC50 (MDA-MB231/ATCC; MDA-MB-231, read-out: Log10 LC50 (converted)): 46.8 µM | IC (TGI) (MDA-MB231/ATCC; MDA-MB-231, read-out: Log10 TGI (converted)): 16.2 µM

Reference: patent US6156790A, “C-10 carbon-substituted artemisinin-like trioxane compounds having antimalarial, antiproliferative and antitumor activities” (priority 1997, dated 2000)
